Laboratory results published in patent US11584742B2 (MASARYKOVA UNIVERZITA, priority 2018, dated 2023).

What was measured:
DR-GFP U2OS cells = assay: HR assay (GFP fluorescence after I-SceI transfection, flow cytometry); assay type: cell-based; settings: Homo sapiens, inhibitor at 25 μM, 72 hours after transfection
Procedure: DR-GFP U2OS cells (Methods in Molecular Biology 2012, 920, 379.) were transfected with 2.5 μg of I-SceI-expressing pCAGGS vector and treated with the inhibitors at 25 μM concentration. 72 hours after the transfection, the cells were trypsinized and resuspended in 3% BSA in PBS. GFP fluorescence detection was carried out using a BD FACSVerse flow cytometer and data analyzed with FlowJo software.

[1] = test system: Phosphorylated RPA32 S4/S8 in U2OS cells; assay: RPA assay (RPA phosphorylation after camptothecin); assay type: cell-based; settings: Homo sapiens, U2OS cells pre-treated 1 h, then 1 uM camptothecin 1 h; for inhibition at 10 µM: inhibitor at 10 μM
Procedure: U2OS cells were pre-treated for 1 h with MRE11 inhibitors followed by addition of 1 uM camptothecin for 1 h. Cells were lysed in SDS-PAGE loading buffer, sonicated and boiled at 70° C. for 10 min. Equal amounts of protein (50-100 μg) were analysed by Tris-glycine gel electrophoresis Expression levels were quantified using Multi Gauge software and expressed relative to loading control. Phosphorylated RPA32 S4/S8 (A300-245A, Bethyl Laboratories) 1:1000 dilution was used.

MRE11 = target: T1, MRE11 (Homo sapiens, UniProt P49959); assay: HTS nuclease assay (cleavage of CY5/BBQ-quenched 5' overhang DNA substrate); assay type: biochemical; settings: in vitro HTS nuclease assay; 18 nM MRE11, 40 nM DNA substrate; analysis at t=4 h
T1 sequence (P49959 1-708): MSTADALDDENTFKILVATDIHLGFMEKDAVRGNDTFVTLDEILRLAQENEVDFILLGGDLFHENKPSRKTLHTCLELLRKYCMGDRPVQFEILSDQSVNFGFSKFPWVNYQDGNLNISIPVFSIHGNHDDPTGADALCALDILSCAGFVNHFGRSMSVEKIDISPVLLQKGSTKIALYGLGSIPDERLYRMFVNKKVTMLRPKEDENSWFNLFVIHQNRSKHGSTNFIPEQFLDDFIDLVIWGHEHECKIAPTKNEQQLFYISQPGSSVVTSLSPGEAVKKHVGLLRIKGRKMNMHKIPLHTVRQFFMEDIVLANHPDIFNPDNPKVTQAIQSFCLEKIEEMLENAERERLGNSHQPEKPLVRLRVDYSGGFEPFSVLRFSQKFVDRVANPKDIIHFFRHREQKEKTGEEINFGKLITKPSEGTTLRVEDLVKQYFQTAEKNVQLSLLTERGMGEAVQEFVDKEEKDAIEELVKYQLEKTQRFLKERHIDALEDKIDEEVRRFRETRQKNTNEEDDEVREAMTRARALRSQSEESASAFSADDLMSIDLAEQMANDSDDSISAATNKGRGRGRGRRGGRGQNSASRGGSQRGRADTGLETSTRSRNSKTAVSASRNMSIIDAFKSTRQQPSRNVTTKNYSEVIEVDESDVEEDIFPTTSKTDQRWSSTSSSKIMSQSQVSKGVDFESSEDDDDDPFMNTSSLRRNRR

SMILES	IC50 (MRE11)	inhibition at 25 µM (DR-GFP U2OS cells)	inhibition at 10 µM [1]	inhibition at 25 µM ([1]; inhibitor at 25 μM)
COc1cccnc1-c1csc(NC(=O)/C(C#N)=C/c2ccc(O)c(O)c2)n1 [Preparative Example 242, (E)-2-cyano-3-(3,4-dihydroxyphenyl)-N-(4-(3-methoxypyridin-2-yl)thiazol-2-yl)acrylamide]	< 2 µM	> 75%	95%	–
N#CC(=Cc1c[nH]cn1)C(=O)Nc1nc(-c2ccccc2)cs1 (racemic) [Preparative Example 214, (E)- and (Z)-2-cyano-3-(1H-imidazol-4-yl)-N-(4-phenylthiazol-2-yl)acrylamide]	10 to 90 µM	< 50%	–	–
Cc1sc(NC(=O)/C(C#N)=C/c2ccc(O)c(O)c2)nc1-c1ccccc1 [Preparative Example 194, (E)-2-cyano-3-(3,4-dihydroxyphenyl)-N-(5-methyl-4-phenylthiazol-2-yl)acrylamide]	< 2 µM	50 to 75%	–	–
N#C/C(=C\c1ccc(O)c(-c2ccccc2)c1)C(=O)Nc1nc(-c2ccccc2)cs1 [Preparative Example 211, (E)-2-cyano-3-(6-hydroxy-[1,1′-biphenyl]-3-yl)-N-(4-phenylthiazol-2-yl)acrylamide]	10 to 90 µM	< 50%	–	–
N#C/C(=C\c1ccc(O)c([N+](=O)[O-])c1)C(=O)Nc1nc(-c2ccccc2)cs1 [Preparative Example 208, (E)-2-cyano-3-(4-hydroxy-3-nitrophenyl)-N-(4-phenylthiazol-2-yl)acrylamide]	10 to 90 µM	50 to 75%	–	–
N#C/C(=C\c1ccc(O)c(O)c1)C(=O)Nc1nc(-c2ccccc2)c(-c2ccccc2)s1 [Preparative Example 176, (E)-2-cyano-3-(3,4-dihydroxyphenyl)-N-(4,5-diphenylthiazol-2-yl)acrylamide]	< 2 µM	> 75%	–	–
N#C/C(=C\c1cc(Cl)c(O)c(Cl)c1)C(=O)Nc1nc(-c2ccc(Br)cc2)cs1 [Preparative Example 165, (E)-N-(4-(4-bromophenyl)thiazol-2-yl)-2-cyano-3-(3,5-dichloro-4-hydroxyphenyl)acrylamide]	< 2 µM	50 to 75%	–	–
N#C/C(=C\c1ccc(O)c(O)c1)C(=O)Nc1nc(-c2ccc3ccccc3c2)cs1 [Preparative Example 163, (E)-2-cyano-3-(3,4-dihydroxyphenyl)-N-(4-(naphthalen-2-yl)thiazol-2-yl)acrylamide]	< 2 µM	> 75%	–	–
N#C/C(=C\c1ccc(O)c(O)c1)C(=O)Nc1nc(-c2ccccc2)c(-c2cnccn2)s1 [Preparative Example 238, (E)-2-cyano-3-(3,4-dihydroxyphenyl)-N-(4-phenyl-5-(pyrazin-2-yl)thiazol-2-yl)acrylamide]	< 2 µM	50 to 75%	–	–

Continued, in another order:

IC50 (MRE11)	SMILES	inhibition at 25 µM (DR-GFP U2OS cells)	inhibition at 10 µM [1]	inhibition at 25 µM ([1]; inhibitor at 25 μM)
< 2 µM	COc1ccc(-c2csc(NC(=O)/C(C#N)=C/c3ccc(O)c(O)c3)n2)cn1 [Preparative Example 241, (E)-2-cyano-3-(3,4-dihydroxyphenyl)-N-(4-(6-methoxypyridin-3-yl)thiazol-2-yl)acrylamide]	< 50%	–	75%
< 2 µM	N#C/C(=C\c1cc(Cl)c(O)c(Cl)c1)C(=O)Nc1nc(-c2ccccn2)cs1 [Preparative Example 243, (E)-2-cyano-3-(3,5-dichloro-4-hydroxyphenyl)-N-(4-(pyridin-2-yl)thiazol-2-yl)acrylamide]	50 to 75%	100%	–
2 to 10 µM	CC(C)(C)c1cccc(-c2csc(NC(=O)/C(C#N)=C/c3ccc(O)c(O)c3)n2)c1 [Preparative Example 247, (E)-N-(4-(3-(tert-butyl)phenyl)thiazol-2-yl)-2-cyano-3-(3,4-dihydroxyphenyl)acrylamide]	50 to 75%	–	–
< 2 µM	CN(C)C(=O)c1ccc(-c2csc(NC(=O)/C(C#N)=C/c3ccc(O)c(O)c3)n2)cc1 [Preparative Example 181, (E)-4(2-(2-cyano-3-(3,4-dihydroxyphenyl)acrylamido)thiazol-4-yl)-N,N-dimethylbenzamide]	< 50%	–	–
10 to 90 µM	CC(=O)Nc1ccc(/C=C(\C#N)C(=O)Nc2nc(-c3ccccc3)cs2)cc1O [Preparative Example 223, (E)-3-(4-acetamido-3-hydroxyphenyl)-2-cyano-N-(4-phenylthiazol-2-yl)acrylamide]	< 50%	–	–
< 2 µM	Cc1cccnc1-c1csc(NC(=O)/C(C#N)=C/c2ccc(O)c(O)c2)n1 [Preparative Example 239, (E)-2-cyano-3-(3,4-dihydroxyphenyl)-N-(4-(3-methylpyridin-2-yl)thiazol-2-yl)acrylamide]	> 75%	–	–
< 2 µM	N#C/C(=C\c1ccc(O)c(O)c1)C(=O)Nc1nc(-c2ccncc2)cs1 [Preparative Example 188, (E)-2-cyano-3-(3,4-dihydroxyphenyl)-N-(4-(pyridin-4-yl)thiazol-2-yl)acrylamide]	50 to 75%	–	–
2 to 10 µM	N#C/C(=C\c1ccc(O)c(O)c1)C(=O)Nc1nc(-c2ccc(-c3ccccc3)cc2)cs1 [Preparative Example 164, (E)-N-(4-([1,1′-biphenyl]-4-yl)thiazol-2-yl)-2-cyano-3-(3,4-dihydroxyphenyl)acrylamide]	> 75%	–	–
< 2 µM	N#C/C(=C\c1ccc(O)c(O)c1)C(=O)Nc1nc(-c2ccc(N3CCOCC3)cc2)cs1 [Preparative Example 178]	50 to 75%	–	–
< 2 µM	N#CC(C(=O)Nc1nc(-c2ccccc2)cs1)=C(c1ccccc1)c1ccc(O)c(O)c1 (mixture of isomers) [Preparative Example 190, (E/Z)-2-cyano-3-(3,4-dihydroxyphenyl)-3-phenyl-N-(4-phenylthiazol-2-yl)acrylamide]	> 75%	–	–
2 to 10 µM	N#C/C(=C\c1ccc2cn[nH]c2c1)C(=O)Nc1nc(-c2ccccc2)cs1 [Preparative Example 205, (E)-2-cyano-3-(1H-indazol-6-yl)-N-(4-phenylthiazol-2-yl)acrylamide]	< 50%	–	–
< 2 µM	N#C/C(=C\c1ccc(O)c(O)c1)C(=O)Nc1nc(-c2ccccc2)c(Br)s1 [Preparative Example 196, (E)-N-(5-bromo-4-phenylthiazol-2-yl)-2-cyano-3-(3,4-dihydroxyphenyl)acrylamide]	50 to 75%	–	–
